Reference: EP4603105A1, “PHARMACEUTICAL COMPOSITION CONTAINING CYCLIC COMPOUND HAVING SELECTIVE KRAS INHIBITORY EFFECT AGAINST HRAS AND NRAS” (CHUGAI SEIYAKU KABUSHIKI KAISHA, priority 2022, dated 2024)
*1 amine or outer side, *2 acyl side, *3 side chain or, on linkers, in order; H or OH if unused. Where a SMILES comes first, the peptide text is derived from it. Bridges are numbered along the chain shown (N, C = ends). [ ]: non-standard residue; d: D form. The star is where a group is joined. hPhe(3-Cl-4-CF3) = N[C@@H](CCc1ccc(C(F)(F)F)c(Cl)c1)C(=O)O; NPrPhe(4-Me) = CCCN[C@@H](Cc1ccc(C)cc1)C(=O)O; NEtPhe(4-Me) = CCN[C@@H](Cc1ccc(C)cc1)C(=O)O; X8 = CCCN([C@@H](COCCC(C)C)C(=O)[*:2])[*:1]; NMeGly(cPent) = CN[C@H](C(=O)O)C1CCCC1; NMeD = CN[C@@H](CC(=O)O)C(=O)O; NMeL = CN[C@@H](CC(C)C)C(=O)O; NMeV = CN[C@H](C(=O)O)C(C)C; Pip = O=C(O)[C@@H]1CCCCN1; Morpholide = C1CN(*)CCO1; NMeA = CN[C@@H](C)C(=O)O; Ac5c = NC1(C(=O)O)CCCC1; Aze = O=C(O)[C@@H]1CCN1; Ac4c = NC1(C(=O)O)CCC1; Sar = CNCC(=O)O

Tests used:
[1] = biological target: GDP-bound KRAS wild-type protein (Homo sapiens, UniProt P01116); assay: Binding to KRAS by surface plasmon resonance (SPR), dissociation constant KD; details: 1:1 binding model
Sequence of GDP-bound KRAS wild-type protein (P01116 1-188 isoform P01116-2): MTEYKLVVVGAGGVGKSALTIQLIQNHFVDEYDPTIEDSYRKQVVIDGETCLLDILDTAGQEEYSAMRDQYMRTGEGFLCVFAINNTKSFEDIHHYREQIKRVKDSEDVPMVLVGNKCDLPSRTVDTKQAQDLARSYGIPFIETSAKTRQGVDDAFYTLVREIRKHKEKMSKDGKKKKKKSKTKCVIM
How it was run: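 SPR, 30°C: Avi-biotin RAS·GDP captured via Biotin CAPture (~100–300 RU); running buffer HBS pH 7.4, 1 mM DTT, 10 mM MgCl2, 0.01% Tween 20, 10 µM GDP, 4% DMSO. Single-cycle kinetics, 100 µL/min, 75 s injections; 1:1 model → KD.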

[2] = biological target: GDP-bound NRAS wild-type protein (Homo sapiens, UniProt P01111); assay: Binding to NRAS by surface plasmon resonance (SPR), KD and KD ratio to KRAS
Sequence of GDP-bound NRAS wild-type protein (P01111 whole entry): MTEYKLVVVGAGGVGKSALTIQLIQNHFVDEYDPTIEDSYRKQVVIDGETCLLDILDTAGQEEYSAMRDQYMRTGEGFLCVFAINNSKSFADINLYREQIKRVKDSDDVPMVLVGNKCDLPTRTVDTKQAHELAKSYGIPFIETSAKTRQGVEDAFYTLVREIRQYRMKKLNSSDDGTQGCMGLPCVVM
How it was run: (§1)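 Single-cycle kinetics on GDP-loaded biotin-Avi RAS captured to ~100–300 RU; 75 s ascending injections, 100 µL/min, 30°C. HBS pH 7.4 + 10 mM MgCl2/10 µM GDP/4% DMSO. 1:1 fit, KD.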

HRAS wild-type protein = HRAS wild-type protein (Homo sapiens, UniProt P01112); assay: Binding to HRAS by surface plasmon resonance (SPR), KD and KD ratio to KRAS
Sequence of HRAS wild-type protein (P01112 whole entry): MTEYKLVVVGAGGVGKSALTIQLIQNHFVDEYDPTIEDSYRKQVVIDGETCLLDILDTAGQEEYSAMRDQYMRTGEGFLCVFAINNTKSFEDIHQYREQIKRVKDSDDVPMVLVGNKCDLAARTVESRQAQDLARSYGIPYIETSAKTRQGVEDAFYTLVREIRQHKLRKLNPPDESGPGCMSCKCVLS
How it was run: as §1

[3] = tested on: human lung cancer strain NCI-H441; format: cell-based
How it was run: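 Proliferation was scored by […] measured after the reagent was added to cultures kept at 37°C in 5% carbon dioxide.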

[4] = ratio of KD value for GDP-bound NRAS wild-type protein to KD value for KRAS (SPR)
[5] = ratio of KD value for HRAS wild-type protein to KD value for KRAS (SPR)
[6] = ratio of KD for GDP-bound NRAS wild-type protein to KD for KRAS
[7] = ratio of KD for HRAS wild-type protein to KD for KRAS

Kd ([1]; Single Cycle Kinetics) | IC50 [3] | Kd [1] | Compound | NRAS /KRAS [2, 4] | HRAS /KRAS (HRAS wild-type protein; [5]) | NRAS /KRAS [2, 6] | HRAS /KRAS (HRAS wild-type protein; [7]) | NRAS /KRAS ([2]; ratio of KD with respect to GDP-bound NRAS wild-type protein to KD with respect to KRAS) | HRAS /KRAS (HRAS wild-type protein; ratio of KD with respect to HRAS wild-type protein to KD with respect to KRAS)
1 nM | 149 nM | – | CCCN1C(=O)[C@@H]2CCN2C(=O)[C@H](C)N(C)C(=O)[C@H]([C@@H](C)CC)NC(=O)[C@H](CC(C)C)N(C)C(=O)C[C@@H](C(=O)N2CCOCC2)N(C)C(=O)[C@H](C2CCCC2)N(C)C(=O)C2(CCC2)NC(=O)[C@@H]2CCCN2C(=O)[C@H](CCc2ccc(C(F)(F)F)c(Cl)c2)NC(=O)CN(C)C(=O)[C@@H]1COCCC(C)C [PP1819] ([NMeL]I[NMeA][Aze][X8][Sar][hPhe(3-Cl-4-CF3)]P[Ac4c][NMeGly(cPent)][NMeD]-Morpholide; lactam N-11) | C (A compound having a KD ratio of 0.1 or more and less than 3 is denoted as C) | C (A compound having a KD ratio of 0.1 or more and less than 3 is denoted as C) | – | – | – | –
– | 82.4 nM | 3.8 nM | CCC[C@H]1C(=O)N[C@@H]([C@@H](C)CC)C(=O)N(C)CC(=O)N(C)[C@H]2C/C=C\CCN(C2=O)[C@@H](Cc2ccc(C(F)(F)F)cc2)C(=O)N(C)CC(=O)N[C@@H](CCc2ccc3c(C)c(C)n(C)c3c2)C(=O)N2C[C@H](OCC)C[C@H]2C(=O)NC2(CC(C)(C)C2)C(=O)N(C)[C@@H](C(CC)CC)C(=O)N(C)[C@H](C(=O)N(C)C)CC(=O)N1C [PP2904] | – | – | AA (a compound having 20 or more is denoted as AA) | A (a compound having 10 or more and less than 20 is denoted as A) | – | –
0.063 nM | 6.2 nM | – | CC[C@H](C)[C@@H]1NC(=O)[C@H](C2CC2)N(C)C(=O)C[C@@H](C(=O)N(C)C)N(C)C(=O)[C@H](C2CCCC2)N(C)C(=O)C2(CCC2)N(C)C(=O)[C@@H]2C[C@@H](C)CN2C(=O)[C@H](CCc2cc(F)c(C(F)(F)F)c(F)c2)NC(=O)CN(C)C(=O)[C@H](Cc2ccc(C)cc2)N2CC/C=C\C[C@@H](C2=O)N(C)C(=O)CN(C)C1=O [PP1788] | B (a compound having 3 or more and less than 10 is denoted as B) | B (a compound having 3 or more and less than 10 is denoted as B) | – | – | – | –
– | 2.1 nM | 0.16 nM | CCCN1C(=O)[C@@H]2CCN2C(=O)[C@@H]2CCCCN2C(=O)[C@H]([C@@H](C)CC)NC(=O)[C@H](CC(C)C)N(C)C(=O)C[C@@H](C(=O)N2CCOCC2)N(C)C(=O)[C@H](C2CCCC2)N(C)C(=O)C2(CCCC2)NC(=O)[C@@H]2CCCN2C(=O)[C@H](CCc2ccc(C(F)(F)F)c(Cl)c2)NC(=O)CN(C)C(=O)[C@@H]1Cc1ccc(C)cc1 [PP0070] ([NMeL]I[Pip][Aze][NPrPhe(4-Me)][Sar][hPhe(3-Cl-4-CF3)]P[Ac5c][NMeGly(cPent)][NMeD]-Morpholide; lactam N-11) | – | – | C (A compound having a KD ratio of 0.1 or more and less than 3 is denoted as C) | B (a compound having 3 or more and less than 10 is denoted as B) | – | –
– | 142 nM | 3.6 nM | CC[C@H](C)[C@@H]1NC(=O)[C@H](CC(C)C)N(C)C(=O)C[C@@H](C(=O)N2CCOCC2)N(C)C(=O)[C@H](C(C)C)N(C)C(=O)C2(CCCC2)NC(=O)[C@@H]2CCCN2C(=O)[C@H](CCc2ccc(C(F)(F)F)c(Cl)c2)NC(=O)CN(C)C(=O)[C@H](Cc2ccc(C)cc2)N(CC)C(=O)CN(C)C(=O)CN(C)C1=O [PP0044] ([NMeL]I[Sar][Sar][NEtPhe(4-Me)][Sar][hPhe(3-Cl-4-CF3)]P[Ac5c][NMeV][NMeD]-Morpholide; lactam N-11) | – | – | C (A compound having a KD ratio of 0.1 or more and less than 3 is denoted as C) | C (A compound having a KD ratio of 0.1 or more and less than 3 is denoted as C) | – | –
0.16 nM | 5.3 nM | – | CCO[C@@H]1C[C@H]2C(=O)NC3(CCC3)C(=O)N(C)[C@@H](C3CCCC3)C(=O)N(C)[C@H](C(=O)N(CC)CC)CC(=O)N(C)[C@@H](CC(F)F)C(=O)N[C@@H]([C@@H](C)CC)C(=O)N(C)CC(=O)N(C)[C@H]3C/C=C\CCN(C3=O)[C@@H](Cc3ccc(C(F)(F)F)cc3)C(=O)N(C)CC(=O)N[C@@H](CCc3cc(F)c(C(F)(F)F)c(F)c3)C(=O)N2C1 [PP1309] | – | – | – | – | A (a compound having 10 or more and less than 20 is denoted as A) | A (a compound having 10 or more and less than 20 is denoted as A)
